Results on 1 compound are retold here after patent US20220370465A1, “TREATMENT OF MAST CELL DISEASES AND EOSINOPHILIC DISORDERS” (Blueprint Medicines Corporation, priority 2019, published 2022).

Structures are written as SMILES.

Test [1] concerns tyrosine kinase inhibitor (TKI)-resistant mastocytoma model. The experiment in a line: TKI-resistant mastocytoma model in vivo.
The test system of the next test is mast cells. The experiment in a line: Mast cell activation, proliferation and survival. The format is cell-based. An excerpt:
In a specific embodiment, the D816 mutation is D816V. In another specific embodiment, the D816 mutation is D816Y. […] In some embodiments, the inhibition is in a dose-dependent manner. […] Current treatment paradigms for mast cell diseases focus on inhibiting individual mast cell mediators for symptom control (anti-histamines, anti-IgE antibodies, etc.), or on using KIT exon 17 inhibitors in KIT mutant mMCAS.

On to `Cn1cc(-c2cc3c(N4CCN(c5ncc([C@@](C)(N)c6ccc(F)cc6)cn5)CC4)ncnn3c2)cn1` [Compound (I), (5)-1-(4-fluorophenyl)-1-(2-(4-(6-(1-methyl-1H-pyrazol-4-yl)pyrrolo[2,1-f][1,2,4]triazin-4-yl)piperazin-yl)pyrimidin-5-yl)ethan-1-amine], for which the “growth inhibition in mastocytoma model” value in test [1] is given as “robust growth inhibition”. Also, in the test with mast cells, the mast cell activation entry is given as “inhibits mast cell activation”, the mast cell proliferation result is recorded as “inhibits mast cell proliferation” and the “survival of mast cells” value is on record as “does not interfere with the survival of mast cells”.
